Experimental data published in patent US11214803B2, “Modulators of YAP1 expression” (Ionis Pharmaceuticals, Inc., priority 2019, dated 2022).
Strand notation (5' to 3'): a small letter for the sugar, then the base; units joined by * are phosphorothioate-linked, units joined directly phosphodiester-linked; [ ] holds rarer units or linkages, { } end groups; capitals alone tell only the bases. e = 2'-O-(2-methoxyethyl) (MOE); k = constrained ethyl (cEt); [5mC] = 5-methylcytosine; d = 2'-deoxy (DNA)

Test system: Yap1 mRNA
Experiment: Dose-dependent inhibition of human Yap1 in SNU-449 cells (Example 9, RTS36584)
Type: cell-based
Conditions: free uptake; for % UTC (Yap1 mRNA): approximately 48 hours; for IC50: linear regression on a log/linear plot
Summary of the method: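 Read-out was Yap1 mRNA (primer-probe RTS36584) normalised to total RNA by RIBOGREEN, given as % of untreated cells, with IC50 fitted by linear regression of log/linear data. Oligonucleotides were dosed by free uptake to SNU-449 cells, 10,000/well, for ~48 h.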

| Substance | % UTC (Yap1 mRNA) (31.3 nM) [% UTC] | % UTC (Yap1 mRNA) (125.0 nM) [% UTC] | % UTC (Yap1 mRNA) (500.0 nM) [% UTC] | % UTC (Yap1 mRNA) (2000.00 nM) [% UTC] | IC50 [nM] |
| --- | --- | --- | --- | --- | --- |
| 1198203 (kG*kG*dA*dA*dA*dT*dT*dG*dT*d[5mC]*dT*e[5mC]*eA*eT*kG*k[5mC]) [compound 1198203] | 71 | 51 | 25 | 11 | 100 |
| 1198526 (kA*kA*dG*dT*dG*dT*dA*dT*dG*dT*d[5mC]*eA*kG*eA*kA*eG; antisense) [compound 1198526] | 61 | 30 | 8 | 2 | 40 |
| 1198502 (kA*kG*dA*dT*dT*dT*dA*dG*dG*dA*dT*eG*k[5mC]*eA*kT*eG; antisense) [compound 1198502] | 76 | 50 | 29 | 15 | 200 |
| 1198786 (kT*eG*kT*dA*dT*dG*dT*d[5mC]*dA*dG*dA*dA*eG*eA*kG*kT) [compound 1198786] | 63 | 32 | 11 | 2 | 100 |
| 1198353 (kA*kG*kT*dG*dT*dA*dT*dG*dT*d[5mC]*dA*dG*kA*eA*kG*eA; antisense) [compound 1198353] | 60 | 30 | 10 | 4 | 40 |
| 1198288 (kG*kA*kA*dA*dT*dT*dG*dT*d[5mC]*dT*d[5mC]*dA*kT*eG*k[5mC]*e[5mC]; antisense) [compound 1198288] | 77 | 43 | 17 | 7 | 100 |
| 1198527 (kA*kA*dA*dG*dT*dG*dT*dA*dT*dG*dT*e[5mC]*kA*eG*kA*eA; antisense) [compound 1198527] | 63 | 35 | 12 | 3 | 100 |
| 1198412 (kT*dT*dA*dG*dG*dA*dT*dG*d[5mC]*dA*dT*kG*eG*kT*eT*kT; antisense) [compound 1198412] | 73 | 54 | 33 | 15 | 200 |
| 1198570 (kG*k[5mC]*kA*d[5mC]*dT*dT*dT*dT*dA*d[5mC]*dA*dT*kT*kA*kG*eG) [compound 1198570] | 58 | 33 | 16 | 9 | 40 |
| 1197214 (kA*kG*kT*dG*dT*dA*dT*dG*dT*d[5mC]*dA*dG*dA*kA*kG*kA; antisense) [compound 1197214] | 88 | 31 | 7 | 1 | 100 |
| 1198557 (kA*kT*kA*dT*dT*dA*dG*dA*dG*dT*dA*dT*kG*kT*kG*eG; antisense) [compound 1198557] | 81 | 52 | 26 | 11 | 200 |
| 1198211 (kA*kT*dT*dA*dG*dA*dG*dT*dA*dT*dG*eT*eG*eG*k[5mC]*kA) [compound 1198211] | 72 | 37 | 23 | 12 | 100 |
| 1198611 (kA*kG*kT*dG*dT*dA*dT*dG*dT*d[5mC]*dA*dG*kA*kA*kG*eA; antisense) [compound 1198611] | 37 | 19 | 4 | 1 | < 30 |
